Experiment [1] has as its system late watergrass. The experiment can be described thus: Test Example 1: herbicidal activity, application before weed generation under submerged conditions (Table 16, symbol A). The class given is in vivo, late watergrass (Echinochloa oryzicola). The conditions noted are these: amount of applied herbicide 320 g/ha. The method in brief: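 Submerged Wagner pots (alluvial soil, 4 cm water) sown with weed seeds and planted with 2.5-leaf rice seedlings; emulsifiable concentrate diluted in water applied to water surface on sowing day. Held in greenhouse at 25-30 °C; injury scored 0-5 by herbicidal rate after three weeks.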

Experiment [2] relates to oval-leafed pondweed. The experiment can be described thus: Test Example 2: herbicidal activity, application during weed generation under submerged conditions (Table 17, symbol C). The class given is in vivo, oval-leafed pondweed (Monochoria vaginalis). The conditions noted are these: AAH 320 g/ha; application during weed generation, submerged conditions. In a few lines: (§1)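 Wagner pot, alluvial soil, 4 cm flood; mixed sowing of all species; greenhouse 25° C.–30° C. Emulsifiable formulation, water-diluted to predetermined dose, applied to paddy water at 1–2 leaf stage. Effect rated at 3 wk using the earlier test's scoring criteria.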

The subject of experiment [3] is velvetleaf. The experiment is described as follows: Test Example 5: herbicidal effect by foliage application, plastic box (Table 20, symbol M). The class given is in vivo, velvetleaf (Abutilon theophrasti). The following applies: foliage application, 320 g/ha, three weeks after application. The method in brief: (§2)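 Plants sown in sterilized diluvial soil and grown 14 days in a greenhouse at 25° C to 30° C, then sprayed on the foliage with the compound's emulsion diluted in water to a predetermined herbicide amount. Injury to weeds and crops scored three weeks after application on a visual rating scale.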

Experiment [4] relates to barnyard grass. The experiment can be described thus: Test Example 3: herbicidal effect by foliage application, Wagner pot (Table 18, symbol H). The conditions noted are these: 320 g/ha. The class given is in vivo, barnyard grass (Echinochloa crus-galli). The method in brief: (§3)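 Plants were sown in alluvial soil held under 0.1–0.5 cm standing water and grown 14 days in a greenhouse at 25–30 °C. An emulsifiable formulation, water-diluted to the set dose, was then sprayed onto the foliage, and effects were scored three weeks later using previously defined criteria.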

Experiment [5] concerns late watergrass. The experiment is described as follows: Test Example 2: herbicidal activity, application during weed generation under submerged conditions (Table 17, symbol A). The class given is in vivo, late watergrass (Echinochloa oryzicola). The conditions noted are these: AAH 320 g/ha; application during weed generation, submerged conditions. In a few lines:
as §1

Experiment [6] relates to green foxtail. The experiment can be described thus: Test Example 4: herbicidal effect by soil treatment (Table 19, symbol G). The class given is in vivo, green foxtail (Setaria viridis). The conditions noted are these: amount of applied herbicide 320 g/ha. The method in brief: (§4)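 Three weeks of greenhouse growth at 25° C. to 30° C. followed a uniform surface spray of water-diluted emulsion at a predetermined herbicide amount. Seeds had been sown beforehand under about 1.5 cm of sterilized diluvial soil. Grading followed criteria set out in an earlier test.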

In experiment [7] the test system is barnyard grass. The experiment is described as follows: Test Example 5: herbicidal effect by foliage application, plastic box (Table 20, symbol H). The class given is in vivo, barnyard grass (Echinochloa crus-galli). The conditions noted are these: foliage application, 320 g/ha, three weeks after application. In a few lines: as §2
Experiment [8] concerns green foxtail. The experiment can be described thus: Test Example 5: herbicidal effect by foliage application, plastic box (Table 20, symbol G). The class given is in vivo, green foxtail (Setaria viridis). The following applies: foliage application, 320 g/ha, three weeks after application. The method in brief: as §2
The subject of experiment [9] is wild oat. The experiment is described as follows: Test Example 5: herbicidal effect by foliage application, plastic box (Table 20, symbol I). The class given is in vivo, wild oat (Avena fatua). The following applies: foliage application, 320 g/ha, three weeks after application. In a few lines:
as §2

In experiment [10] the test system is Chinese sprangletop. The experiment is described as follows: Test Example 3: herbicidal effect by foliage application, Wagner pot (Table 18, symbol D). The experiment is classed as in vivo, chinese sprangletop (Leptochloa chinensis). The following applies: 320 g/ha. The method in brief: as §3
Experiment [11] deals with redroot pigweed. The experiment is described as follows: Test Example 4: herbicidal effect by soil treatment (Table 19, symbol N). The class given is in vivo, redroot pigweed (Amaranthus retroflexus). The conditions noted are these: amount of applied herbicide 320 g/ha. The method in brief: as §4
Experiment [12] relates to windgrass. The experiment is described as follows: Test Example 4: herbicidal effect by soil treatment (Table 19, symbol L). The class given is in vivo, windgrass (Apera spica-venti). The following applies: amount of applied herbicide 320 g/ha. The method in brief:
as §4

The test system of experiment [13] is lambsquarters. The experiment can be described thus: Test Example 5: herbicidal effect by foliage application, plastic box (Table 20, symbol O). The class given is in vivo, lambsquarters (Chenopodium album). The following applies: foliage application, 320 g/ha, three weeks after application. In a few lines:
as §2

Experiment [14] relates to redroot pigweed. The experiment can be described thus: Test Example 5: herbicidal effect by foliage application, plastic box (Table 20, symbol N). The experiment is classed as in vivo, redroot pigweed (Amaranthus retroflexus). The following applies: foliage application, 320 g/ha, three weeks after application. In a few lines: as §2
In experiment [15] the test system is windgrass. The experiment is described as follows: Test Example 5: herbicidal effect by foliage application, plastic box (Table 20, symbol L). The class given is in vivo, windgrass (Apera spica-venti). The following applies: foliage application, 320 g/ha, three weeks after application. In a few lines:
as §2

Experiment [16] relates to velvetleaf. The experiment is described as follows: Test Example 4: herbicidal effect by soil treatment (Table 19, symbol M). The experiment is classed as in vivo, velvetleaf (Abutilon theophrasti). The conditions noted are these: amount of applied herbicide 320 g/ha. In a few lines: as §4

Regarding `CCCOc1ccc2c(-c3c(O)c(C)nn(C)c3=O)c(-c3ccccc3OCC)sc2c1` [3-103], the “Herbicidal effect, A: late watergrass” value in experiment [1] was 5 (Herbicidal rate of 90% or more (almost completely withered)). Moreover, in experiment [2], the “herbicidal effect rating, C: oval-leafed pondweed” value (“herbicidal effect rating, C” for short) was 3 (Herbicidal rate of 40% or more and less than 70%). In addition, the “M: velvetleaf, herbicidal effect grade” value is 5 (Herbicidal rate of 90% or more (almost completely withered)) in experiment [3]; 3 (Herbicidal rate of 40% or more and less than 70%) in experiment [16]. Also, the “herbicidal effect on barnyard grass (H)” value in experiment [4] was 4 (Herbicidal rate of 70% or more and less than 90%). In experiment [5], the “herbicidal effect rating, A: late watergrass” value was 2 (Herbicidal rate of 20% or more and less than 40%). In addition, the “G: green foxtail, herbicidal effect grade” value (“G: green foxtail” for short) in [6] is 4 (Herbicidal rate of 70% or more and less than 90%); in experiment [8], 5 (Herbicidal rate of 90% or more (almost completely withered)). The “H: barnyard grass, herbicidal effect grade” value (“H: barnyard grass” for short) in experiment [7] is 5 (Herbicidal rate of 90% or more (almost completely withered)). Moreover, the “I: wild oat, herbicidal effect grade” value in [9] is 2 (Herbicidal rate of 20% or more and less than 40%). The “herbicidal effect on Chinese sprangletop (D)” value (from here on “herbicidal effect … (D)”) in experiment [10] was 5 (Herbicidal rate of 90% or more (almost completely withered)). For the same compound, the “N: redroot pigweed, herbicidal effect grade” value (“N: redroot pigweed” below) in experiment [11] is 4 (Herbicidal rate of 70% or more and less than 90%); in experiment [14], 5 (Herbicidal rate of 90% or more (almost completely withered)). Besides, the “L: windgrass, herbicidal effect grade” value in [12] was 5 (Herbicidal rate of 90% or more (almost completely withered)); in [15] it was 4 (Herbicidal rate of 70% or more and less than 90%). The “O: lambsquarters, herbicidal effect grade” value (from here on “O: lambsquarters”) in experiment [13] was 4 (Herbicidal rate of 70% or more and less than 90%).
Regarding `C=CCOc1ccc2c(-c3c(O)c(C)nn(C)c3=O)c(-c3ccccc3OC)sc2c1` [3-111], the “Herbicidal effect, A: late watergrass” value in experiment [1] is 5 (Herbicidal rate of 90% or more (almost completely withered)). In addition, the “herbicidal effect rating, C” value in [2] is 3 (Herbicidal rate of 40% or more and less than 70%). Moreover, the “M: velvetleaf, herbicidal effect grade” value is 5 (Herbicidal rate of 90% or more (almost completely withered)) in experiment [3]; 3 (Herbicidal rate of 40% or more and less than 70%) in experiment [16]. Further, the “herbicidal effect on barnyard grass (H)” value in experiment [4] is given as 5 (Herbicidal rate of 90% or more (almost completely withered)). For the same compound, the “herbicidal effect rating, A: late watergrass” value in [5] was 4 (Herbicidal rate of 70% or more and less than 90%). The “G: green foxtail” value in experiment [6] and in experiment [8] was 5 (Herbicidal rate of 90% or more (almost completely withered)) throughout. Further, the “H: barnyard grass” value in experiment [7] was 5 (Herbicidal rate of 90% or more (almost completely withered)). Moreover, the “I: wild oat, herbicidal effect grade” value in experiment [9] was 4 (Herbicidal rate of 70% or more and less than 90%). In [10], the “herbicidal effect … (D)” value was 3 (Herbicidal rate of 40% or more and less than 70%). Besides, the “N: redroot pigweed” value in [11] and in experiment [14] was 5 (Herbicidal rate of 90% or more (almost completely withered)) in each case. The “L: windgrass, herbicidal effect grade” value in experiment [12] is 0 (Herbicidal rate of 5% or less (almost no effect)); in experiment [15] it was 5 (Herbicidal rate of 90% or more (almost completely withered)). Further, the “O: lambsquarters” value in experiment [13] is reported as 5 (Herbicidal rate of 90% or more (almost completely withered)).
Regarding `COc1ccccc1-c1sc2cc(OCC(F)F)ccc2c1-c1c(O)c(C)nn(C)c1=O` [3-114], the “Herbicidal effect, A: late watergrass” value in [1] is reported as 5 (Herbicidal rate of 90% or more (almost completely withered)). The “herbicidal effect rating, C” value in experiment [2] is listed as 5 (Herbicidal rate of 90% or more (almost completely withered)). Also, the “M: velvetleaf, herbicidal effect grade” value in [3] is 5 (Herbicidal rate of 90% or more (almost completely withered)); in [16], 4 (Herbicidal rate of 70% or more and less than 90%). The “herbicidal effect on barnyard grass (H)” value in experiment [4] was 5 (Herbicidal rate of 90% or more (almost completely withered)). Moreover, in experiment [5], the “herbicidal effect rating, A: late watergrass” value is 3 (Herbicidal rate of 40% or more and less than 70%). Also, the “G: green foxtail” value in experiment [6] and in [8] was 5 (Herbicidal rate of 90% or more (almost completely withered)) throughout. Also, in experiment [7], the “H: barnyard grass” value was 5 (Herbicidal rate of 90% or more (almost completely withered)). For the same compound, the “I: wild oat, herbicidal effect grade” value in experiment [9] is reported as 5 (Herbicidal rate of 90% or more (almost completely withered)). Moreover, the “herbicidal effect … (D)” value in experiment [10] was 4 (Herbicidal rate of 70% or more and less than 90%). In addition, the “N: redroot pigweed” value in experiment [11] and in [14] was 5 (Herbicidal rate of 90% or more (almost completely withered)) each time. For the same compound, the “L: windgrass, herbicidal effect grade” value in experiment [12] and in experiment [15] was 5 (Herbicidal rate of 90% or more (almost completely withered)) in each case. Further, the “O: lambsquarters” value in experiment [13] is on record as 5 (Herbicidal rate of 90% or more (almost completely withered)).
For `CCOc1ccccc1-c1sc2cc(OCCOC)ccc2c1-c1c(O)c(C)nn(C)c1=O` [3-123], the “Herbicidal effect, A: late watergrass” value in experiment [1] is recorded as 5 (Herbicidal rate of 90% or more (almost completely withered)). Besides, the “herbicidal effect rating, C” value in experiment [2] was 2 (Herbicidal rate of 20% or more and less than 40%). Besides, the “M: velvetleaf, herbicidal effect grade” value in experiment [3] is 5 (Herbicidal rate of 90% or more (almost completely withered)); in [16] it was 2 (Herbicidal rate of 20% or more and less than 40%). Also, the “herbicidal effect on barnyard grass (H)” value in experiment [4] was 5 (Herbicidal rate of 90% or more (almost completely withered)). For the same compound, the “herbicidal effect rating, A: late watergrass” value in experiment [5] is 3 (Herbicidal rate of 40% or more and less than 70%). Also, the “G: green foxtail” value in experiment [6] and in experiment [8] was 5 (Herbicidal rate of 90% or more (almost completely withered)) each time. In [7], the “H: barnyard grass” value was 5 (Herbicidal rate of 90% or more (almost completely withered)). The “I: wild oat, herbicidal effect grade” value in [9] is listed as 5 (Herbicidal rate of 90% or more (almost completely withered)). In addition, in experiment [10], the “herbicidal effect … (D)” value is 5 (Herbicidal rate of 90% or more (almost completely withered)). The “N: redroot pigweed” value in [11] and in experiment [14] was 5 (Herbicidal rate of 90% or more (almost completely withered)) in each case. In addition, the “L: windgrass, herbicidal effect grade” value in experiment [12] and in experiment [15] was 5 (Herbicidal rate of 90% or more (almost completely withered)) in each case. Moreover, in experiment [13], the “O: lambsquarters” value is given as 5 (Herbicidal rate of 90% or more (almost completely withered)).

For the origin of these results see patent US20230085307A1, “PYRIDAZINONE COMPOUND AND HERBICIDE” (NISSAN CHEMICAL CORPORATION, priority 2019, published 2023).
